Entries after “also recorded” stand apart in the source; their conditions may differ. Starred links: 1 amine or outer side, 2 acyl side, 3 side chain; linkers in the order of their positions; H or OH if unused. Positions of bridges follow the written chain, without caps; N, C: chain ends. Non-standard residues stand in square brackets, D forms with d. Residues, ends and D or L forms follow the SMILES beside them. X1 = C[C@@](CC=[*:3])(N[*:1])C(=O)[*:2]
Key:
[1] = target: recombinant SARS-CoV-2 spike B.1.617.2 (delta variant); type: binding
[2] = tested on: SARS-CoV-2 alpha variant (B.1.1.7); type: cell-based
[3] = tested on: omicron (B.1.1.529) variant; type: binding, SARS-CoV-2

Compound	Kd ([1]; read-out: KD (dissociation constant))	inhibition of SARS-CoV-2 virus replication [2]	decrease of viral replication compared to PBS control ([2]; 48 h)	binding to omicron variant [3]	dissociation constant of ACE2 with delta variant compared with wild-type spike [1]
CSCC[C@@H]1NC(=O)[C@H](CC(N)=O)NC(=O)[C@@H]2CC(=O)NCCCC[C@H](NC(=O)[C@H](Cc3c[nH]c4ccccc34)NC(=O)[C@@H](NC(=O)[C@H](CCCCN)NC(=O)[C@H](Cc3ccc(O)cc3)NC(=O)[C@H](CC(C)C)NC(=O)[C@H](Cc3c[nH]c4ccccc34)NC(=O)[C@H](CCC(=O)O)NC(=O)[C@@H](NC(=O)CNC(C)=O)[C@@H](C)O)C(C)C)C(=O)N[C@@H](C)C(=O)N[C@@H](Cc3ccccc3)C(=O)N[C@@](C)(C/C=C/C[C@@](C)(C(=O)O)NC1=O)C(=O)N2 [pep39] (Ac-GTEWLYKVWKAF[X1]DNM[X1]-OH; lactam 10-14; staple (E) 13-17)	4.1 ± 1.4 µM	strongly inhibits SARS-CoV-2 virus replication in Vero E6 cells; also recorded: SARS-CoV-2 viral replication was significantly inhibited	82.3%	not as promising as those observed with the original spike protein and the delta variant	
ACE2					more favorable for binding than the wild-type spike protein
